Experimental data as given in patent EP0565593B1, “REDUCING PESTICIDAL INTERACTIONS IN CROPS” (priority 1990, dated 1992).
Several values for one entry are separate records, joined by “and”; a condition that tells them apart may be missing. Equal values may be shown once. Read-outs that look alike come from different tables or passages of the source.

Key:
Corn [1] = experiment: Greenhouse test, combination of Procedures II and III: insecticide in-furrow or in cover layer, herbicide and antidote incorporated in cover layer (Examples 1-3, 6; Tables 1-3, 6); assay type: in vivo; settings: 3 weeks
Corn [2] = settings: for antidote activity: COUNTER with BEACON, PURSUIT (POE) or XRD-498 (PPI), Tables 29-37; for activity in reducing corn injury: primisulfuron POE + biocides PPI, Tables 8-10
Corn [3] = experiment: Greenhouse test Procedure VII: biocide and antidote in furrow, herbicide POE (Examples 39-42, 48-50, 56-58; Tables 38-41, 47-49, 55-57); assay type: in vivo; settings: for % Inhibition Corn: C (COUNTER) + antidote in furrow
Description: This procedure describes interaction among herbicide, biocide and antidote when the biocide and the antidote is applied to a soil furrow containing crop seed before emergence of the crop and the herbicide is applied after emergence of the crop and weeds. The soil and planting depth was described in Procedure IV. The containers for comparison, the biocide and antidote applications to soil furrows were described in Procedure VI. In this procedure, the seed beds of the first, second, third and fourth containers are covered by soil layers not treated with herbicide. The containers were then placed on a bench in a greenhouse and subirrigated as required for the duration of the test. The herbicide, dispersed or dissolved in water containing 0.25% v/v nonionic surfactant (X-77) was applied by a track sprayer (187 L/ha) to the emerged plants of the second, third and fourth containers about five days after planting. All treatments were run in duplicate. Plant response was observed according to Procedure IV. Variations in this procedure will be noted in the examples.
In this example, tests were conducted according to Procedure VII for the POE application of the herbicides following in-furrow application of COUNTER® 15G insecticide (BIOCIDE No. 1) and the antidote on the pre-planted test seeds. In this test, the herbicides were Nos. 1 (MON-12000), 10 (ALLY®) and #4 (HARMONY®) and the Antidote Nos. 1, 7, 12 and 33.
These in-furrow treatments comprised a 50-50 mix of blended granules of COUNTER with and without 5G granular antidotes at 7.4 + 7.4 mg/cm or 1.1 + 0.37 mg active ingredient (a.i.)/cm. The in-furrow initiation of the test was followed five (5) days later with POE application of the herbicides; observations were made eight (8) days later.
In another test, conducted simultaneously with that in Example 39, Herbicide Nos. 5 (chlorimuron ethyl, active ingredient in CLASSIC® herbicide), 7 (nicosulfuron, active ingredient in ACCENT® herbicide) and 15 (tribenuron methyl, active ingredient in EXPRESS® herbicide) were substituted as test herbicides.
In this example, using the same procedure as above, the following imidazolinone herbicides were used with the same insecticide/biocide and antidotes as above: Herb. No. 16 (imazaquin, a.i. in SCEPTER® herbicide; No. 19 (Code No. AC 222293, a.i. in ASSERT® herbicide); No. 6 (imazethapyr, a.i. in PURSUIT® herbicide and No. 18 (imazapyr, a.i. in ARSENAL® herbicide). Test results are shown in Table 40. Table 40
This example describes the testing of the above antidotes used in Examples 39-41 to safen negative synergy interactions between representative species of the class of herbicidal compounds identified as azolopyrimidine sulfonamides and COUNTER 15G. The same procedure used in the above examples was conducted in this test. In this test, the herbicides were formulated in 17% acetone and 83% water with 0.25% v/v X-77 surfactant.
In these tests (according to Procedure VII) the safeners in solution with acetone were applied in furrow to the soil, followed by COUNTER 15G granules at 227 g/305 m (8 oz./1000'). Applications were made in alternate rows in two separate 13.7 cm x 27.7 cm pans containing Dupo silt loam. Pans were seeded 1.3 cm deep, placed on benches in a greenhouse and subirrigated. BEACON was formulated in water with 0.25% v/v X-77 surfactant and applied by track sprayer at a rate of 187 L/Ha (20 gal/A). Weed species in this test were giant foxtail, shattercane and velvetleaf. The herbicide was applied five (5) days after PPI initiation and observation of test result (shown in Table 47) made eight (8) days later.
In Table 47 COUNTER 15G is abbreviated as "C" and the antidotes as "A" in the column headings which indicate the "C + A" ratios used in the tests. Control and COUNTER treatments are average of four (4) replications and COUNTER + Antidote treatments, average of 2 reps. […]

Giant foxtail (GIFT) = experiment: whole plant or invertebrate; assay type: in vivo; settings: for % Inhibition GIFT: in vivo
Velvetleaf (VELE) = assay type: in vivo, Abutilon theophrasti
Shattercane (SHCA) = assay type: in vivo
Corn [4] = system: Corn
[5] = C:A Ratio 20, ACCENT 0.56 Kg/Ha POE
[6] = C:A Ratio 20, BEACON 0.28 Kg/Ha POE
[7] = C:A Ratio 40, ACCENT 0.56 Kg/Ha POE
[8] = C:A Ratio 40, BEACON 0.28 Kg/Ha POE
[9] = C:A Ratio 80, ACCENT 0.56 Kg/Ha POE
[10] = C:A Ratio 80, BEACON 0.28 Kg/Ha POE
[11] = C:A Ratio 160, ACCENT 0.56 Kg/Ha POE
[12] = C:A Ratio 160, BEACON 0.28 Kg/Ha POE
[13] = […], 13 days after planting, 8 days after herbicide
[14] = Antidote 4.48 + Biocide No. 1 8.96 Kg/Ha PPI, Herb. No. 8 0.07, 5 DAP, before herbicide application
[15] = Antidote 4.48 + Biocide No. 1 8.96 Kg/Ha PPI, Herb. No. 8 0.07 POE, 13 DAP
[16] = Antidote 4.48 + Biocide No. 1 8.96 Kg/Ha PPI, Herbicide No. 7 0.28 POE, 13 days after planting
[17] = Herb. […], 5 DAP, before herbicide application
[18] = Table 14: Herbicide No. 7 (ACCENT) 0.84 Kg/Ha POE + Biocide No. 2 8.96 Kg/Ha PPI + antidote 4.48 Kg/Ha PPI, 13 days after planting, 8 days after herbicide
[19] = […], observed 10 days after herbicide application

## Cc1c(F)c(F)c(COC(=O)[C@@H]2[C@H](/C=C(\Cl)C(F)(F)F)C2(C)C)c(F)c1F (racemic) [Biocide No. 3, 2,3,5,6-tetrafluoro-4-methylbenzyl-(Z(-(1 RS, 3RS)-3-(2-Chloro-3,3,3-trifluoroprop-1-ethyl)-2,2-dimethyl-cyclopropane carboxylate, reference compound]
Corn [1]; Ex. 3: Insecticide 3 (227g) alone
  % Injury Corn: 3%

## CCSC(=O)COC(c1ccccc1)c1ccccc1 [Antidote No. 51, Ethanethioic acid, 2-(diphenyl-methoxy)-, S-ethyl ester]
Corn [2]
  antidote activity: most active

## O=C(O)c1sc(Cl)nc1C(F)(F)F [Antidote No. 65, 5-Thiazolecarboxylic acid, 2-chloro-4-(trifluoromethyl)-]
Corn [2]
  antidote activity: slightly more active than other thiazoles tested

## O=C(O)COC(c1ccccc1)c1ccccc1 [compound 79]
Corn [3]; [5]
  % Inhibition Corn: 15%
Corn [3]; [6]
  % Inhibition Corn: 0%
Corn [3]; [7]
  % Inhibition Corn: 20%
Corn [3]; [8]
  % Inhibition Corn: 5%
Corn [3]; [9]
  % Inhibition Corn: 30%
Corn [3]; [10]
  % Inhibition Corn: 15%
Corn [3]; [11]
  % Inhibition Corn: 45%
Corn [3]; [12]
  % Inhibition Corn: 20%

## O=C1OC(=O)c2cccc3cccc1c23 [Antidote No. 5, 1H,3H-Naphtho<1,8-cd>pyran-1,3-dione]
Giant foxtail (GIFT); XRD-498 + OP insecticides, Examples 24-27
  giant foxtail control: reduction in giant foxtail control

## O=C(OCc1ccccc1)c1sc(Cl)nc1C(F)(F)F [compound 7]
Velvetleaf (VELE); [13]
  % Inhibition VELE: 65%
Velvetleaf (VELE); […], observed 7 days after POE (Table 35)
  % Inhibition VELE: 75%

## O=C(O)COC(c1ccccc1)c1ccccc1 [compound 78]
Corn [3]; [5]
  % Inhibition Corn: 25%
Corn [3]; [6]
  % Inhibition Corn: 5%
Corn [3]; [7]
  % Inhibition Corn: 20%
Corn [3]; [8]
  % Inhibition Corn: 5%
Corn [3]; [9]
  % Inhibition Corn: 40%
Corn [3]; [10]
  % Inhibition Corn: 20%
Corn [3]; [11]
  % Inhibition Corn: 60%
Corn [3]; [12]
  % Inhibition Corn: 20%

## Clc1cc(Cl)nc(-c2ccccc2)n1 [compound 31]
Giant foxtail (GIFT)
  % Inhibition GIFT: 55% and 80% and 85% and 75% and 95% and 60%
Shattercane (SHCA); [14]
  % Inhibition 5 DAP SHCA: 0%
Shattercane (SHCA); [15]
  % Inhibition 13 DAP SHCA: 80%
Shattercane (SHCA); [16]
  % Inhibition SHCA: 75%
Shattercane (SHCA); [17]
  % Inhibition 5 DAP SHCA: 0%
Shattercane (SHCA); [18]
  % Inhibition SHCA: 75%
Shattercane (SHCA); [13]
  % Inhibition SHCA: 85%
Shattercane (SHCA); [19]
  % Inhibition SHCA: 65%
Shattercane (SHCA); in vivo
  % Inhibition 5 DAP SHCA: 20%
  % Inhibition 13 DAP SHCA: 80%
  % Inhibition SHCA: 85% and 50% and 60% and 45%
Corn [2]; [14]
  % Inhibition 5 DAP Corn: 10%
Corn [2]; [15]
  % Inhibition 13 DAP Corn: 75%
Corn [2]; [16]
  % Inhibition Corn: 65%
Corn [2]; [17]
  % Inhibition 5 DAP Corn: 0%
Corn [2]; [18]
  % Inhibition Corn: 45%
Corn [2]; [13]
  % Inhibition Corn: 30%
Corn [2]; [19]
  % Inhibition Corn: 70%
Corn [2]; in vivo
  % Inhibition 5 DAP Corn: 15%
  % Inhibition 13 DAP Corn: 65%
Corn [2]
  activity in reducing corn injury: either inactive or weakly active
Velvetleaf (VELE); [14]
  % Inhibition 5 DAP VELE: 0%
Velvetleaf (VELE); [15]
  % Inhibition 13 DAP VELE: 85%
Velvetleaf (VELE); [16]
  % Inhibition VELE: 65%
Velvetleaf (VELE); [17]
  % Inhibition 5 DAP VELE: 0%
Velvetleaf (VELE); Herb. […], 13 DAP, after herbicide application
  % Inhibition 13 DAP VELE: 95%
Velvetleaf (VELE); [18]
  % Inhibition VELE: 65%
Velvetleaf (VELE); [13]
  % Inhibition VELE: 65%
Velvetleaf (VELE); [19]
  % Inhibition VELE: 80%
Velvetleaf (VELE); in vivo
  % Inhibition 5 DAP VELE: 0%
  % Inhibition 13 DAP VELE: 85%

## CC1COc2ccccc2N1C(=O)C(Cl)Cl (stereo not shown) [Antidote No. 28, 4-(Dichloroacetyl)-3,4-dihydro-3-methyl-2H-1,4-benzoxazine]
Corn [4]; DIAZINON + Herbicides 1, 21, 18, Example 53
  safening: Effective safening
Corn [4]; malathion + Herbicides 1, 21, 18, Example 54
  safening: moderate to high degrees of safening
Corn [2]; Example 29, COUNTER with BEACON and ACCENT
  safening, comparison: comparable to MON-13900 (No. 1), but less effective than MON-7400

## N#CCON=C(C#N)c1ccccc1 [Antidote No. 9, Benzeneacetonitrile, alpha-<(cyano-methoxy)imino>-]
Corn [2]
  antidote activity: active safeners

## C=CCC(C)(C#N)Sc1ccc(C)cc1 (stereo not shown) [compound 32]
Shattercane (SHCA); [14]
  % Inhibition 5 DAP SHCA: 30%
Shattercane (SHCA); [15]
  % Inhibition 13 DAP SHCA: 85%
Shattercane (SHCA); [16]
  % Inhibition SHCA: 70%
Shattercane (SHCA); [18]
  % Inhibition SHCA: 70%
Shattercane (SHCA); [13]
  % Inhibition SHCA: 95%
Shattercane (SHCA); [19]
  % Inhibition SHCA: 50%
Shattercane (SHCA); in vivo
  % Inhibition 5 DAP SHCA: 30%
  % Inhibition 13 DAP SHCA: 80%
Corn [2]; [14]
  % Inhibition 5 DAP Corn: 0%
Corn [2]; [15]
  % Inhibition 13 DAP Corn: 75%
Corn [2]; [16]
  % Inhibition Corn: 55%
Corn [2]; [17]
  % Inhibition 5 DAP Corn: 0%
Corn [2]; [18]
  % Inhibition Corn: 35%
Corn [2]; [13]
  % Inhibition Corn: 25%
Corn [2]; [19]
  % Inhibition Corn: 70%
Corn [2]; in vivo
  % Inhibition 5 DAP Corn: 20%
  % Inhibition 13 DAP Corn: 70%
  % Inhibition Corn: 65% and 55% and 45%
Corn [2]
  activity in reducing corn injury: either inactive or weakly active
Velvetleaf (VELE); [14]
  % Inhibition 5 DAP VELE: 0%
Velvetleaf (VELE); [15]
  % Inhibition 13 DAP VELE: 90%
Velvetleaf (VELE); [16]
  % Inhibition VELE: 65%
Velvetleaf (VELE); [17]
  % Inhibition 5 DAP VELE: 0%
Velvetleaf (VELE); [18]
  % Inhibition VELE: 60%
Velvetleaf (VELE); [13]
  % Inhibition VELE: 70%
Velvetleaf (VELE); [19]
  % Inhibition VELE: 80%
Velvetleaf (VELE); in vivo
  % Inhibition 5 DAP VELE: 0%
  % Inhibition 13 DAP VELE: 85%

## CNC(=O)Oc1cccc2c1OC(C)(C)C2 [Biocide No. 4, 2,3-Dihydro-2,2-dimethyl-7-benzofuranyl methylcarbamate, reference compound]
Corn [1]; Ex. 3: Insecticide 4 (227 g) alone
  % Injury Corn: 5%

## CCOP(=S)(OCC)SCSCC [Biocide No. 10, O,O-Diethyl S-[(ethylthio)methyl]phosphorodithioate, reference compound]
Giant foxtail (GIFT)
  % Inhibition GIFT: 30% and 20%
Shattercane (SHCA); in vivo
  % Inhibition SHCA: 25%

## O=C(C(Cl)Cl)N1CCOC12CCCCC2 [Antidote No. 16, 1-Oxa-4-azaspiro<4.5>decane, 4-(dichloroacetyl)-]
Corn [3]; COUNTER 15G + BEACON/co-herbicide combinations, Example 56
  corn injury: reduced corn injury
Corn [3]; COUNTER 15G/BEACON, Example 48
  safening, comparison: not as active as the other safeners
Corn [3]; COUNTER/BEACON (and ACCENT), Examples 49, 50
  protecting corn, comparison: weak in safening effect
